Source: patent US10227324B2 (Shanghai Haiyan Pharmaceutical Technology Co., Ltd., priority 2014, dated 2019)
Where two headings read alike, the source gives them in different places.

What was measured:
[1] = test system: Akt phosphorylation (Ser473-p-Akt) in PC-3 cells; assay: Inhibition of p-Akt phosphorylation level in PC-3 cells (cell level fluorescence imaging); format: cell-based; conditions: Homo sapiens; Akt phosphorylation in PC-3 cells, 2 hours incubation; read-out: PC-3 cell (IC50/nM)
Experimental: This experiment was performed by cell level fluorescence image processing method.
Triton X-100: 10% aqueous Triton X-100 solution (Sigma T8787-100 mL) was prepared, stored at 4° C. and diluted by 1:100 to give 0.1% Triton X-100 aqueous solution for use in the experiment.
Prodium Iodide (PI): 1 mg/mL (1.5 mM) PI (Sigma P4170) storage solution was prepared with PBS and stored at −25° C. in the dark. For use, the PI storage solution was diluted with PBS by 1:1000 to give a 1.5 μM solution and used in dark.
PC-3 cells in logarithmic growth phase were digested with 0.25% EDTA trypsin. 3000 cells/90 μL were seeded in a 96-well plate (BD 356692) and cultured at 37° C. and 5% CO2. After the cells adhered, 10 μL of the compound to be tested which was gradiently diluted 3 times (0.0046 to 10 μM, 8 concentration points, in duplicate) was added and incubated for 2 hours, followed by addition of 100 μL of 4% paraformaldehyde (DINGGUO AR-0211) and incubated at room temperature for 45 minutes. Then 100 μL of 0.1% Triton X-100 solution was added and incubated for another 30 minutes.
Triton X-100 solution was removed and the cells were rinsed with 200 μl of PBS twice (300 rpm vibration for 1 minute). The blocking solution (1% BSA solution in PBS) (Genview FA016-100G) was added and incubated at room temperature for 2 hours. The plate was rinsed with PBS once (300 rpm, 1 min) and 30 μL of Ser473-p-Akt antibody (cell signaling 4060L) diluted with 0.1% BSA was added and incubated overnight at 4° C. Ser473-p-Akt antibody was removed and the plate was rinsed with PBS twice (300 rpm, 1 minute). 35 μL of Alexa Flour 488 donkey anti-rabbit IgG (Invitrogen A21206) was added and incubated at room temperature for 1.5 hours. The plate was rinsed with PBS twice (300 rpm, 1 minute) and 35 μL of 1.5 μM PI was added and incubated at room temperature for 0.5 h. The fluorescence intensity was measured with Acumen eX3 (TTP LabTech).
10 μM BEZ235 (Selleck S1009) treatment group was negative control and DMSO treatment group was positive control. Inhibition ratio %=[1−(the mean value of the fluorescence intensity of the compound to be tested−the mean value of the fluorescence intensity of the negative control group)/(the mean value of the fluorescence intensity of the positive control group−the mean value of the fluorescence intensity of the negative control group)]×100%

T47D cells = assay: Cell inhibitory activity detected by MTT assay, T47D; format: cell-based; conditions: Homo sapiens, T47D, 72 h, read-out: T47D cell (IC50/nM), cell growth inhibition
Experimental: (§1) The MTT assay procedure and steps were carried out as well known to those skilled in the art, and all the reagents used in the methods were commercially available. The cells in logarithmic growth phase were digested with 0.25% EDTA trypsin (Gibco, 25200-056) and resuspended in fresh medium. 90 μL of the cell suspension was inoculated into a 96-well cell culture plate (BD Faclon 353072) with a suitable cell density and cultured at 37° C. under 5% CO2. After the cells adhered, 10 μL of the test compound at different concentrations (0.0046-10 μM, 8 concentration points) was added and incubated for another 72 h. 10 μL of MTT (5 mg/mL PBS solution) (Sigma, M5655) was added to react for 4 h. The absorbance at 492 nm was measured by using Thermo Scientific Multiskan MK3 microplate reader and IC50 was calculated using XLFIT 5.0 software (UK IDBS). T47D cell culture medium: RPMI-1640 medium (Hyclone SH30809.01B)+10% FBS (Gibco 10099-141)

MCF-7 cells = assay: Cell inhibitory activity detected by MTT assay, MCF-7; format: cell-based; conditions: Homo sapiens, MCF7, 72 h, read-out: MCF-7 cell (IC50/nM), cell growth inhibition
Experimental: as §1, with “MCF-7” for “T47D”, “DMEM” for “RPMI-1640”, “SH30243.01B+10%” for “SH30809.01B)+10%”

[2] = molecular target: T1, PI3K-α kinase (p110α/p85α) (Homo sapiens, UniProt P42336); assay: Determination of PI3K kinase activity (ADP Transcreener, fluorescence polarization); format: biochemical; conditions: ATP 10 μM
T1 construct: purchased Invitrogen PV4788
T1 sequence (P42336 whole entry): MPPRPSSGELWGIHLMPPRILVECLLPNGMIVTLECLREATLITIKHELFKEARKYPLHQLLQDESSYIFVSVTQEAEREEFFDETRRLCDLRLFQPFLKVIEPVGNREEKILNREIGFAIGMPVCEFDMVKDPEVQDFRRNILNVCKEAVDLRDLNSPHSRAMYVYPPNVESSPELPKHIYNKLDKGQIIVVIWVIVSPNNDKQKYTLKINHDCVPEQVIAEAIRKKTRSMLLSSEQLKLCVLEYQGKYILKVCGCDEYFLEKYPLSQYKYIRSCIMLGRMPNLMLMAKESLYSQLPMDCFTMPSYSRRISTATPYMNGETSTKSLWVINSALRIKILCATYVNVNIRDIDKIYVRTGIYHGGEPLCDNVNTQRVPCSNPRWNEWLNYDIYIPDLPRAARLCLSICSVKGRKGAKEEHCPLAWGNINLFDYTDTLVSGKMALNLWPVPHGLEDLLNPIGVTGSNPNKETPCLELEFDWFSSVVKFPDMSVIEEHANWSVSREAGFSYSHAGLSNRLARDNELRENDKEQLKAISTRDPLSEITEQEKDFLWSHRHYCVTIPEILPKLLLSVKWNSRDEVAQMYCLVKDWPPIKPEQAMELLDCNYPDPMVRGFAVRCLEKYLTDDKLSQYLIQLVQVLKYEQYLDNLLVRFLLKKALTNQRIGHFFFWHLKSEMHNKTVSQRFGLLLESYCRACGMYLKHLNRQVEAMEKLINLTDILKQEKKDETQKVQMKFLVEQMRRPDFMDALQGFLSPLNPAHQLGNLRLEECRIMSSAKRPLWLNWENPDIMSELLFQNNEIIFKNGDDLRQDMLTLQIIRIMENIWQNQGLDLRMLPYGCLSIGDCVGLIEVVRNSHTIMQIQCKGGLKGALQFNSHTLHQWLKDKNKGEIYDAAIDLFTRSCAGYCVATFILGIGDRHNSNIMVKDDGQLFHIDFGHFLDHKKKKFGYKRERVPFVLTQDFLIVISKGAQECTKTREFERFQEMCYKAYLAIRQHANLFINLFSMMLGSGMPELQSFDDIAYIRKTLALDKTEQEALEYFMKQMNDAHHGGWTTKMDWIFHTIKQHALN
T1 sequence (P27986 whole entry partner): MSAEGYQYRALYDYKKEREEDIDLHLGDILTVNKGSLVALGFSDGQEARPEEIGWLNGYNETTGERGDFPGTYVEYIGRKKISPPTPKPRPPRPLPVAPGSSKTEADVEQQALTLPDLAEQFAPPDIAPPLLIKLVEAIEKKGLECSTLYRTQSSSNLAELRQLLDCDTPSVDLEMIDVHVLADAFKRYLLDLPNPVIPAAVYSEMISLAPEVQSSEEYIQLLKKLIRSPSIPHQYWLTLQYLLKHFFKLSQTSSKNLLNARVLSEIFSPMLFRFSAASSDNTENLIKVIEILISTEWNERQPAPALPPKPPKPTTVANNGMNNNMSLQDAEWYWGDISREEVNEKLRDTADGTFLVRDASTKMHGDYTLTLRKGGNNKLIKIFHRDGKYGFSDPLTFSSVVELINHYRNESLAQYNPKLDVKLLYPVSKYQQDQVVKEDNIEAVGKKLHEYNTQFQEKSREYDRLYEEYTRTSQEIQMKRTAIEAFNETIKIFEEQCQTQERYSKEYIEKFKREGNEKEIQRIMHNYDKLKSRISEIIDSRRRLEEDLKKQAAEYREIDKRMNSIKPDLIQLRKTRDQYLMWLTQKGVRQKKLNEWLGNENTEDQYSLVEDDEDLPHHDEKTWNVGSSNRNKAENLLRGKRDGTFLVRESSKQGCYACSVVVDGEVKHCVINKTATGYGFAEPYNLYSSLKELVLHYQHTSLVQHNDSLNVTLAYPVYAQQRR
Experimental: (§2) The inhibition of PI3K kinase activity by the compound to be tested was determined by the following method. The working concentration of each component in the 25 μL enzyme reaction system was: p110α/p85α 3 ng (or p110β/p85α 60 ng, or p110δ/p85α 90 ng, or p110γ 100 ng), ATP 10 μM, PIP2: PS (Invitrogen PV5100) 30 μM and the DMSO concentration was 2% after addition of the compound to be tested.
(§3) At the time of the test, the compound to be tested was dissolved in dimethylsulfoxide (DMSO) according to the desired concentration of the experiment. The compound to be tested was gradiently diluted 3 times (0.00046-1 μM, 8 concentration points) with 10% DMSO. 5 μL of the compound to be tested was added to each well of a 96-well plate (Greiner 675076) in duplicate. […] 10 μL of ATP/PIP2: PS and 10 μL of the PI3K enzyme working solution were added to each well in a 96-well plate. The plate was shaken and mixed uniformly, and then incubated at 25° C. for 1 hour. At the same time, ADP and ATP (0.01 μM, 0.02 μM, 0.04 μM, 0.06 μM, 0.08 μM[…], 0.1 μM, 0.25 μM, 0.5 μM, 1 μM, 2 μM, 5 μM, 10 μM, 12 concentration points) were diluted with buffer to set the standard curve. After completion of the enzyme reaction, 25 μL of ADP assay solution (1% 100×ADP tracer, 0.79% ADP antibody and 10% 10× reaction stop solution) was added and incubated at 25° C. for 1 hour. Fluorescence polarization value [mP] of each well was measured with a Perkin Elmer Victor X5 Fluorescent Microplate. The ADP concentration [ADP] was calculated from the ADP/ATP standard curve and the IC50 values were calculated using the XLFit software.

NIH3T3 cells = assay: Cytotoxicity by MTT assay, NIH3T3; format: cell-based; conditions: Mus musculus, NIH3T3, 72 h, cytotoxicity class, read-out: NIH3T3 cell (IC50/nM)
Experimental: The MTT assay procedure and steps were carried out as well known to those skilled in the art, and all the reagents used in the methods were commercially available.
as §1, with “The” for “The MTT assay procedure and steps were carried out as well known to those skilled in the art, and all the reagents used in the methods were commercially available. The”, “IDBS).” for “IDBS). T47D cell culture medium: RPMI-1640 medium (Hyclone SH30809.01B)+10% FBS (Gibco 10099-141)”

[3] = molecular target: T2, PI3K-β kinase (p110β/p85α) (Homo sapiens, UniProt P42338); assay: Determination of PI3K kinase activity (ADP Transcreener, fluorescence polarization); format: biochemical; conditions: Table 1; ATP 10 μM; read-out: PI3K-β/nM (IC50 of inhibitory activity against PI3K kinase)
T2 construct: purchased Millipore 14-603
T2 sequence (P42338 whole entry): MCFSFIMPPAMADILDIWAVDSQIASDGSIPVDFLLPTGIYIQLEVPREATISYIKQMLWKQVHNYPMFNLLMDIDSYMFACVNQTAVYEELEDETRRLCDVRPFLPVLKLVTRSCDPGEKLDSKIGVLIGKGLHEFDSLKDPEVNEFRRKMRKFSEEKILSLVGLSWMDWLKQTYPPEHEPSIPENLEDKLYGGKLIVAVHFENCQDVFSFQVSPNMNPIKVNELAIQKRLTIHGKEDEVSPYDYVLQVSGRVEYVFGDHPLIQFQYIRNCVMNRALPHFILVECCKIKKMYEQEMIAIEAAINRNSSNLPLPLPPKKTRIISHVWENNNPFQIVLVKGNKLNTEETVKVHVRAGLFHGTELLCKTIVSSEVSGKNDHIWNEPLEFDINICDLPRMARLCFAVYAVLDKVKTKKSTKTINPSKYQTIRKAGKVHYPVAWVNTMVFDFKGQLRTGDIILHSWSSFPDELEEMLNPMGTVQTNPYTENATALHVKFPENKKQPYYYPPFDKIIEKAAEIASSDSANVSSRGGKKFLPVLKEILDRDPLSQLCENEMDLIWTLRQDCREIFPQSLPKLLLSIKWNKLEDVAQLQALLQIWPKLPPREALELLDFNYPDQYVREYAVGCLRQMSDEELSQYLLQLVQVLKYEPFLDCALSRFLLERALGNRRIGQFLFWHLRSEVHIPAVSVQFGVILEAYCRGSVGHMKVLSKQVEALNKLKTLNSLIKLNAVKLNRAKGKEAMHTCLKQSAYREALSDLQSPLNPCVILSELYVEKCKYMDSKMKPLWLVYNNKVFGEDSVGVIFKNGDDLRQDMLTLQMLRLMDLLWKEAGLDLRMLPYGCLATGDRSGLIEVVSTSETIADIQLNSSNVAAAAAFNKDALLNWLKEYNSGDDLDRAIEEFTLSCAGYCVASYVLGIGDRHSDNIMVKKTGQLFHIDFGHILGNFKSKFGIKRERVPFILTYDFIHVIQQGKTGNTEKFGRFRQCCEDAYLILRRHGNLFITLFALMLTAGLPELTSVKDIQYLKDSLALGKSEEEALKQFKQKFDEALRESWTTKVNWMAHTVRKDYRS
T2 sequence (P27986 whole entry partner): as the sequence (P27986 whole entry partner) above
Experimental: as §2, §3

[4] = molecular target: T3, PI3K-δ kinase (p110δ/p85α) (Homo sapiens, UniProt O00329); assay: as above; format: biochemical; conditions: Table 1; ATP 10 μM; read-out: PI3K-δ/nM (IC50 of inhibitory activity against PI3K kinase)
T3 construct: purchased Millipore 14-604M
T3 sequence (O00329 whole entry): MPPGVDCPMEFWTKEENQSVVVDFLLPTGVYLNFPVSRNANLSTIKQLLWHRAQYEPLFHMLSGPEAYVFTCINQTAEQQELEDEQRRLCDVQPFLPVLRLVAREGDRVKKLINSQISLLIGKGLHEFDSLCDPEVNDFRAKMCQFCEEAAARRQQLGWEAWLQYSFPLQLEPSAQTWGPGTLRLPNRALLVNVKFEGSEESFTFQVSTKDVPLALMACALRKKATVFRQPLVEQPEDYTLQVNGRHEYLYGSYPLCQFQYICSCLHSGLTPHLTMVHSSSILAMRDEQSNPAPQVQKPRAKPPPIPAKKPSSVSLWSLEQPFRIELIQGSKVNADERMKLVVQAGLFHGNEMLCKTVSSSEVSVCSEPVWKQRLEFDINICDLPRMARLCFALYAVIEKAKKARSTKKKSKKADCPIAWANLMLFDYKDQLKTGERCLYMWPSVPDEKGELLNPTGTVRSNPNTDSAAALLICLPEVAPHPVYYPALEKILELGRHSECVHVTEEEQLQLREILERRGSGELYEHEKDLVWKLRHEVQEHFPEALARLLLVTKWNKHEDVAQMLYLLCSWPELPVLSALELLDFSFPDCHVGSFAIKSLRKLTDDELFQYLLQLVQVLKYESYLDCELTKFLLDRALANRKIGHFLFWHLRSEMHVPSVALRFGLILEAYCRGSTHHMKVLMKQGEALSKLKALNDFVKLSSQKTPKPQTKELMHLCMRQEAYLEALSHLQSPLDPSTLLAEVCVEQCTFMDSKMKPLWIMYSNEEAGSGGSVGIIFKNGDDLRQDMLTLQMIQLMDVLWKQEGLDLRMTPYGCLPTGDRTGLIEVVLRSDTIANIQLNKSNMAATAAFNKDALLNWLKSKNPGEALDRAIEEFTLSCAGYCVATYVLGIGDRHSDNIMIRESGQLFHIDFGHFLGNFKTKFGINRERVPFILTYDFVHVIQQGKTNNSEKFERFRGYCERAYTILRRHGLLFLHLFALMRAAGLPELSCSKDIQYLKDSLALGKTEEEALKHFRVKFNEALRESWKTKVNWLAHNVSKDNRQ
T3 sequence (P27986 whole entry partner): as the sequence (P27986 whole entry partner) above
Experimental: as §2, §3

PI3K-γ kinase (p110γ) = molecular target: T4, PI3K-γ kinase (p110γ) (Homo sapiens, UniProt P48736); assay: as above; format: biochemical; conditions: Table 1; ATP 10 μM; read-out: PI3K-γ/nM (IC50 of inhibitory activity against PI3K kinase)
T4 construct: purchased Invitrogen PV4786
T4 sequence (P48736 whole entry): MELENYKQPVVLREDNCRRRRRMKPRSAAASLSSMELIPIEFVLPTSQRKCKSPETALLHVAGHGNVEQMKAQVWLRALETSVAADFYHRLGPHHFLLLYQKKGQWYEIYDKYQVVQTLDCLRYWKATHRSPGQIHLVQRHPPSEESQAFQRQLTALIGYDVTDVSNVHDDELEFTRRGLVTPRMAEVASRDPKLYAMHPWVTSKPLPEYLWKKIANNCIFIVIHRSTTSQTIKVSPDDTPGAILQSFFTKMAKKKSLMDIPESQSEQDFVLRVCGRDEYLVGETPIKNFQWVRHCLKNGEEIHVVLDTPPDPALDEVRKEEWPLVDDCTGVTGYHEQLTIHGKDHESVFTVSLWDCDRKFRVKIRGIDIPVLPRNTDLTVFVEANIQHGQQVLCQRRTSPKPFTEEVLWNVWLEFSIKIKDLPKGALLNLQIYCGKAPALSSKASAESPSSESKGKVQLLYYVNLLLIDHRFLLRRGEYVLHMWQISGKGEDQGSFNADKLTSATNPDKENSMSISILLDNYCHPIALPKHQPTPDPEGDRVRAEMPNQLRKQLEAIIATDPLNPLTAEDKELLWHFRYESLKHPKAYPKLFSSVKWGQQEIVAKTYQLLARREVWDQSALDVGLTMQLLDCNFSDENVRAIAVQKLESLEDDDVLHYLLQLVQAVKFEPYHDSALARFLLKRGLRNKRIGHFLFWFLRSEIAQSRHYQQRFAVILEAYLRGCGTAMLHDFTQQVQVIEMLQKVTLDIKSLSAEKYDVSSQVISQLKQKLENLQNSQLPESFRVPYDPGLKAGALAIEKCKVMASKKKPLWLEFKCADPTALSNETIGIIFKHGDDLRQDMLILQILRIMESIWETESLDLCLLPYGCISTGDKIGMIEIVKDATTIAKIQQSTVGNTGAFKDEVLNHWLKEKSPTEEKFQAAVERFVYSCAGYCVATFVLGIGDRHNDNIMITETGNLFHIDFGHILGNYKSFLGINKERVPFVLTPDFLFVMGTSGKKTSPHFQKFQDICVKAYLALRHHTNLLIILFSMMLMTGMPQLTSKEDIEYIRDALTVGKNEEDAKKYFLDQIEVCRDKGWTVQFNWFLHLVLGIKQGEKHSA
Experimental: The PI3K kinase used in the experiment: p110α/p85α (Invitrogen PV4788), p110β/p85α (Millipore 14-603), p110δ/p85α (Millipore 14-604M), and p110γ (Invitrogen PV4786).
as §2
as §3, with “duplicate. 2.5× buffer was prepared and 1 μL of DTT (Millipore 20-265) was added to each 800 μL of 2.5× buffer.” for “duplicate.”

[5] = Table 2, read-out: PI3K-α/nM (IC50 of inhibitory activity against PI3K-α kinase)
[6] = Table 1, read-out: PI3K-α/nM (IC50 of inhibitory activity against PI3K kinase)

Compound	IC50 [1]	IC50 (MCF-7 cells)	IC50 (NIH3T3 cells)	also measured
CCOC(=O)C1(c2cc(-c3cnc(N)cc3C(F)(F)F)nc(N3CCOCC3)n2)CC1 [Compound S-2]			5000 to 10000 nM	IC50 [2, 5]: 550 nM
C[C@@H]1COCCN1c1nc(-c2cnc(N)cc2C(F)(F)F)cc(C2(S(C)(=O)=O)CC2)n1 [Compound S-5]			1000 to 3000 nM	
Nc1cc(C(F)(F)F)c(-c2cc(C3(C(=O)N4CCCCC4)CC3)nc(N3CCOCC3)n2)cn1 [Compound S-7]			> 10000 nM	
Nc1cc(C(F)(F)F)c(-c2cc(C3(CN4CCOCC4)CC3)nc(N3CCOCC3)n2)cn1 [Compound S-8, 5-(2-morpholino-6-(1-(morpholinomethyl)cyclopropyl)pyrimidin-4-yl)-4-(trifluoromethyl)pyridin-2-amine]			> 10000 nM	
C[C@H]1COCCN1c1nc(-c2cnc(N)cc2C(F)(F)F)cc(C2(S(=O)(=O)c3ccccc3)CCC2)n1 [Compound S-15]			5000 to 10000 nM	
CNc1cc(C(F)(F)F)c(-c2cc(C3(S(C)(=O)=O)CC3)nc(N3CCOCC3)n2)cn1 [Compound S-36]			3000 to 5000 nM	
CC(C)(c1cc(-c2cnc(N)cc2C(F)(F)F)nc(N2CCOCC2)n1)n1ncc2ccccc21 [Compound S-56, 5-(6-(2-(1H-indazol-1-yl)propan-2-yl)-2-morpholinopyrimidin-4-yl)-4-(trifluoromethyl)pyridin-2-amine]			> 10000 nM	

Continued, in another order:

IC50 [1]	IC50 (MCF-7 cells)	Compound	IC50 (NIH3T3 cells)	also measured
596 nM		Nc1cc(C(F)(F)F)c(-c2cc(N3CCOCC3)nc(N3CCOCC3)n2)cn1 [BKM-120, reference compound]		
2260 nM	996 nM	CS(=O)(=O)C1(c2cc(-c3cnc(N)cc3C(F)(F)F)nc(N3CCOCC3)c2)CC1 [Comparative compound 1, 4-(1-(methylsulfonyl)cyclopropyl)-6-morpholino-4′-(trifluoromethyl)-2,3′bipyridyl-6′-amine, reference compound]		IC50 (T47D cells): 1220 nM
513 nM	441 nM	CC(C)(c1cc(-c2ccc(N)nc2)nc(N2CCOCC2)n1)S(C)(=O)=O [Compound S-39]		
465 nM	355 nM	CS(=O)(=O)C1(c2cc(-c3ccc(N)nc3)nc(N3CCOCC3)n2)CC1 [Compound S-40]		IC50 [2, 5]: 92 nM
577 nM	240 nM	CC(C)(O)c1cc(-c2cnc(N)cc2Cl)nc(N2CCOCC2)n1 [Compound S-63]		IC50 [2, 6]: 21 nM; IC50 [3]: 228 nM; IC50 [4]: 158 nM; IC50 (PI3K-γ kinase (p110γ)): 428 nM
330 nM		CC(C)(O)c1cc(-c2cnc(N)nc2C(F)(F)F)nc(N2CCOCC2)n1 [Compound S-64]		IC50 [2, 6]: 13 nM; IC50 [3]: 27 nM; IC50 [4]: 19 nM; IC50 (PI3K-γ kinase (p110γ)): 431 nM
